The values below come from patent US8586579B2, “Anellated pyridine compounds” (Hoffmann-La Roche Inc., priority 2010, dated 2013).

Data set [1] addresses human D3 receptor (Homo sapiens (Human), UniProt P35462). The experiment in a line: Radioligand binding assay, [3H]-spiperone, human D3 receptor. Conditions: membranes of HEK293 EBNA cells expressing human D3; 0.5 nM [3H]-spiperone. An outline of the steps: (§1)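 Membranes from transiently transfected HEK293 EBNA cells were incubated 1 h at RT with ten compound concentrations (10 μM-0.1 nM) and radioligand: 0.5 nM [3H]-spiperone for D3 (Tris/NaCl/Mg/Ca buffer, pH 7.4) or 1.1 nM [3H]-ketanserin for 5-HT2A (Tris/MgCl2/EGTA, pH 7.4).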

For data set [2], the target named is human D2 receptor (Homo sapiens (Human), UniProt P14416). As to the kind of experiment: Radioligand binding assay, [3H]-spiperone, human D2 receptor. The following applies: membranes of HEK293 EBNA cells expressing human D2; 0.7 nM [3H]-spiperone. In outline:
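Membranes from HEK293 EBNA cells transiently expressing human D2 were incubated 1 h at RT with ~0.7 nM [3H]-spiperone and ten compound concentrations (10 μM–0.1 nM) in Tris buffer with NaCl, MgCl2, KCl, CaCl2, EDTA, pH 7.4.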

Data set [3] concerns the target human 5-HT2A receptor (Homo sapiens (Human), UniProt P28223). As to the kind of experiment: Radioligand binding assay, [3H]-ketanserin, human 5-HT2A receptor. An outline of the steps: as §1
Setting [4] is: membranes of HEK293 EBNA cells expressing human 5-HT2A, 1.1 nM [3H]-ketanserin.

Like-named read-outs stand apart in the source and are kept apart here.

Sequence of human 5-HT2A receptor (P28223 whole entry): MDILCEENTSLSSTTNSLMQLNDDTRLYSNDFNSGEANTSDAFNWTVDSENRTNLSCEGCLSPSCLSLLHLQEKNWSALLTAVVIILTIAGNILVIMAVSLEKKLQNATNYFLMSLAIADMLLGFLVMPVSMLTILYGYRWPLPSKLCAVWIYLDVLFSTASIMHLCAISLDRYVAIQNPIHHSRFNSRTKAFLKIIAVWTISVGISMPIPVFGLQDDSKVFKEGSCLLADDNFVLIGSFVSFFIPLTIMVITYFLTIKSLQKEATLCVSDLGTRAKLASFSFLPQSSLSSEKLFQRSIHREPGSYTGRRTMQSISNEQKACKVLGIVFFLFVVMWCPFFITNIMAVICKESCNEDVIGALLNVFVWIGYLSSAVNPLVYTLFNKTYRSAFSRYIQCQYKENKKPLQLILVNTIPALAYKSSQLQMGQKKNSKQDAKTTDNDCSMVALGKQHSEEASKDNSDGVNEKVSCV
Sequence of human D3 receptor (P35462 whole entry): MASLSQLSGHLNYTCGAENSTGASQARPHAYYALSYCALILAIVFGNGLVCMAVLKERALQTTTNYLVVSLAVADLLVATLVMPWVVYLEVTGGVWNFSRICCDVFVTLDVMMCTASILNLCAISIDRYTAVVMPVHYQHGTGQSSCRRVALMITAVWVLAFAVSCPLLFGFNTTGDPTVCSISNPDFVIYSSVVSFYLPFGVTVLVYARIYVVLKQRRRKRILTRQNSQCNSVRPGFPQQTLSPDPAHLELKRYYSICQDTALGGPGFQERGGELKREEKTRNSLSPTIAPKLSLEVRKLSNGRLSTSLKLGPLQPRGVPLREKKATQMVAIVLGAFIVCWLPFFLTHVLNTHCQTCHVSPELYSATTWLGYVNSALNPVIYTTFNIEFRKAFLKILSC
Sequence of human D2 receptor (P14416 whole entry): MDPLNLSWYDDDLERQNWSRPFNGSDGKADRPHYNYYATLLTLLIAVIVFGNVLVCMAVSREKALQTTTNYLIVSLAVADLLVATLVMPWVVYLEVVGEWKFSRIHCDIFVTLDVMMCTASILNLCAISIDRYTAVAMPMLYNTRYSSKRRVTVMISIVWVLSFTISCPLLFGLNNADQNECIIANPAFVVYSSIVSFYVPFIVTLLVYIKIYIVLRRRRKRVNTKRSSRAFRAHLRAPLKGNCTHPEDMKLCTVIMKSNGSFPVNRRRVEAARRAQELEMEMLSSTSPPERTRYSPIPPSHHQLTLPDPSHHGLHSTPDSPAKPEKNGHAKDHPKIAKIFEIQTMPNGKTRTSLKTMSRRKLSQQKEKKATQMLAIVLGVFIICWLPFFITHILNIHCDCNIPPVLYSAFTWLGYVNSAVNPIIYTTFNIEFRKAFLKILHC

On to `COCCC(=O)N[C@H]1CC[C@H](CCN2CCN(c3ncc(C)c4c3CCO4)CC2)CC1` [Example 111, trans-3-Methoxy-N-(4-{2-[4-(7-methyl-2,3-dihydro-furo[3,2-c]pyridin-4-yl)-piperazin-1-yl]-ethyl}-cyclohexyl)-propionamide], for which the melting point (in general, the temperature, or range, at which the solid turns liquid) came to 163.5 °C. Moreover, the Ki (as a rule, the dissociation constant of the complex between target and ligand, obtained from inhibition or displacement) in data set [1] stood at 46.8 nM. Further, the Ki in data set [2] was determined as 3560 nM. The inhibition constant Ki in data set [3] (setting [4]) was 37 nM.

On to `O=C(C[C@H]1CCCO1)N[C@H]1CC[C@H](CCN2CCN(c3nccc4c3CCO4)CC2)CC1` [Example 68, trans-N-(4-{2-[4-(2,3-Dihydro-furo[3,2-c]pyridin-4-yl)-piperazin-1-yl]-ethyl}-cyclohexyl)-2-(R)-(tetrahydro-furan-2-yl)-acetamide], for which the melting point was 183 °C. Moreover, the Ki in data set [1] was 27.1 nM. In data set [2], the Ki worked out at 915 nM. Also, the Ki in data set [3] came to 14.6 nM.

Compound `Cc1cnc(N2CCN(CC[C@H]3CC[C@H](NC(=O)CC4CCOCC4)CC3)CC2)c2ccoc12` [Example 106, trans-N-(4-{2-[4-(7-Methyl-furo[3,2-c]pyridin-4-yl)-piperazin-1-yl]-ethyl}-cyclohexyl)-2-(tetrahydro-pyran-4-yl)-acetamide] came in with a melting point of 205.5 °C. The Ki in data set [1] turned out to be 38 nM. Further, the Ki in data set [2] came out at 2720 nM. The Ki in data set [3] (setting [4]) is 11.7 nM.

On to `CC[C@H](O)CC(=O)N[C@H]1CC[C@H](CCN2CCN(c3nccc4c3CCO4)CC2)CC1` [Example 89, (S)-3-Hydroxy-pentanoic acid trans-(4-{2-[4-(2,3-dihydro-furo[3,2-c]pyridin-4-yl)-piperazin-1-yl]-ethyl}-cyclohexyl)-amide], for which the melting point was 158 °C. Besides, in data set [1], the Ki stood at 20 nM. Moreover, the Ki in data set [2] was 887 nM. For the same compound, the Ki in data set [3] stood at 30 nM.

In turn, `O=C(CC1CCOCC1)N[C@H]1CC[C@H](CCN2CCN(c3nccc4c3CCO4)CC2)CC1` [Example 34, trans-N-(4-{2-[4-(2,3-Dihydrofuro[3,2-c]pyridin-4-yl)-piperazin-1-yl]-ethyl}-cyclohexyl)-2-(tetrahydro-2H-pyran-4-yl)-acetamide] returned a melting point of 233 °C. Also, in data set [1], the Ki came out at 24.9 nM. Further, in data set [2], the Ki was 869 nM. Besides, the Ki in data set [3] (setting [4]) stood at 20.1 nM.

As for `O=C(N[C@H]1CC[C@H](CCN2CCN(c3nccc4c3CCO4)CC2)CC1)c1ccc(-c2cccnc2)cc1` [Example 120, trans-N-(4-{2-[4-(2,3-Dihydro-furo[3,2-c]pyridin-4-yl)-piperazin-1-yl]-ethyl}-cyclohexyl)-4-pyridin-3-yl-benzamide], the melting point is 218 °C. Moreover, the Ki in data set [1] was found to be 16.1 nM. The Ki in data set [2] is 223 nM. Further, the Ki in data set [3] (setting [4]) was 12.3 nM.

In the case of `Cc1cc2c(c(N3CCN(CC[C@H]4CC[C@H](NC(=O)CC5CCOCC5)CC4)CC3)n1)CCO2` [Example 102, trans-N-(4-{2-[4-(6-Methyl-2,3-dihydro-furo[3,2-c]pyridin-4-yl)-piperazin-1-yl]-ethyl}-cyclohexyl)-2-(tetrahydro-pyran-4-yl)-acetamide], the melting point was found to be 218.5 °C. Further, in data set [1], the Ki stood at 18.7 nM. Besides, the Ki in data set [2] worked out at 1940 nM. For the same compound, the Ki in data set [3] (setting [4]) worked out at 193 nM.

`O=C(N[C@H]1CC[C@H](CCN2CCN(c3nccc4c3CCO4)CC2)CC1)C1(O)CCC1` [Example 123, 1-Hydroxy-cyclobutanecarboxylic acid trans-(4-{2-[4-(2,3-dihydro-furo[3,2-c]pyridin-4-yl)-piperazin-1-yl]-ethyl}-cyclohexyl)-amide] returned a melting point of 177.5 °C. The Ki in data set [1] was found to be 131 nM. Also, in data set [2], the Ki amounted to 959 nM. For the same compound, the Ki in data set [3] (setting [4]) turned out to be 9.8 nM.

Take `CC(C)(C)c1ccc(C(=O)N[C@H]2CC[C@H](CCN3CCN(c4nccc5c4CCO5)CC3)CC2)cc1` [Example 131, trans-4-tert-Butyl-N-(4-{2-[4-(2,3-dihydro-furo[3,2-c]pyridin-4-yl)-piperazin-1-yl]-ethyl}-cyclohexyl)-benzamide]: the melting point was 186.5 °C. Also, the Ki in data set [1] is 147 nM. Further, in data set [2], the inhibition constant (Ki) stood at 1660 nM. Also, the Ki in data set [3] was 66.7 nM.

Turning to `O=C(N[C@H]1CC[C@H](CCN2CCN(c3nccc4c3CCO4)CC2)CC1)c1cnc(N2CCOCC2)cn1` [Example 130, 5-Morpholin-4-yl-pyrazine-2-carboxylic acid trans-(4-{2-[4-(2,3-dihydro-furo[3,2-c]pyridin-4-yl)-piperazin-1-yl]-ethyl}-cyclohexyl)-amide], the melting point came out at 192.5 °C. Moreover, the Ki in data set [1] is 119 nM. The Ki in data set [2] was determined as 506 nM. The Ki in data set [3] (setting [4]) stood at 18.4 nM.

The compound `CC(=O)N[C@H]1CC[C@H](CCN2CCN(c3nc(C)cc4occc34)CC2)CC1` [Example 96, trans-N-(4-{2-[4-(6-Methyl-furo[3,2-c]pyridin-4-yl)-piperazin-1-yl]-ethyl}-cyclohexyl)-acetamide] registered a melting point of 207.5 °C. In data set [1], the Ki turned out to be 4.64 nM. Also, the Ki in data set [2] stood at 249 nM. Further, the Ki in data set [3] (setting [4]) amounted to 75.2 nM.

Compound `O=C(CCO)N[C@H]1CC[C@H](CCN2CCN(c3nccc4c3CCO4)CC2)CC1` [Example 41, trans-N-(4-{2-[4-(2,3-Dihydrofuro[3,2-c]pyridin-4-yl)-piperazin-1-yl]-ethyl}-cyclohexyl)-3-hydroxypropanamide] showed a melting point of 173 °C. Besides, the Ki in data set [1] stood at 11.5 nM. Moreover, the Ki in data set [2] worked out at 734 nM. Further, in data set [3], the Ki is 35.7 nM.

Regarding `Cc1nc(-c2cccc(C(=O)N[C@H]3CC[C@H](CCN4CCN(c5nccc6c5CCO6)CC4)CC3)c2)no1` [Example 127, trans-N-(4-{2-[4-(2,3-Dihydro-furo[3,2-c]pyridin-4-yl)-piperazin-1-yl]-ethyl}-cyclohexyl)-3-(5-methyl-[1,2,4]oxadiazol-3-yl)-benzamide], the melting point stood at 218 °C. In addition, the Ki in data set [1] is 19.5 nM. Further, in data set [2], the Ki stood at 2150 nM. Further, the Ki in data set [3] (setting [4]) was 48.9 nM.

Turning to `CS(=O)(=O)N[C@H]1CC[C@H](CCN2CCN(c3nccc4c3CCO4)CC2)CC1` [Example 48, trans-N-(4-{2-[4-(2,3-Dihydro-furo[3,2-c]pyridin-4-yl)-piperazin-1-yl]-ethyl}-cyclohexyl)-methanesulfonamide], the melting point was 220 °C. For the same compound, the Ki in data set [1] worked out at 31.6 nM. Moreover, in data set [2], the Ki worked out at 1270 nM. Besides, in data set [3] (setting [4]), the Ki was 21.7 nM.

The compound `COC(CC(=O)N[C@H]1CC[C@H](CCN2CCN(c3nccc4c3CCO4)CC2)CC1)OC` [Example 113, trans-N-(4-{2-[4-(2,3-Dihydro-furo[3,2-c]pyridin-4-yl)-piperazin-1-yl]-ethyl}-cyclohexyl)-3,3-dimethoxy-propionamide] yielded a melting point of 220 °C. In data set [1], the Ki amounted to 19.3 nM. For the same compound, the Ki in data set [2] is 1380 nM. Also, the Ki in data set [3] (setting [4]) came out at 15.7 nM.

Compound `COCCC(=O)N[C@H]1CC[C@H](CCN2CCN(c3nc(C)cc4c3CCO4)CC2)CC1` [Example 103, trans-3-Methoxy-N-(4-{2-[4-(6-methyl-2,3-dihydro-furo[3,2-c]pyridin-4-yl)-piperazin-1-yl]-ethyl}-cyclohexyl)-propionamide] had a melting point of 178.5 °C. Further, in data set [1], the Ki is 11.8 nM. The inhibition constant Ki in data set [2] is 1490 nM. Besides, the Ki in data set [3] (setting [4]) turned out to be 255 nM.
